Tests used:
[1] = Oral treatment of a person with andropause-type symptoms; assay type: in vivo, human; conditions: oral 3×100 mg daily, 4 weeks, one person
Procedure: A person with complaints of decreased libido, lethargy, depression, and muscular weakness, was treated for 4 weeks with oral androstenedione 3×100 mg daily. […] After a 2 week respite, they then commenced a 4 week regimen of 5alpha-ANDROST-1-EN-3,17-DIONE using the same protocol (3×100 mg daily).

[2] = Steroids (8) 216; cited from earlier work
[3] = 100 mg orally to men; cited from earlier work

SMILES	reported improvement of symptoms (decreased libido, lethargy, depression, muscular weakness) [1]	anabolic properties relative to testosterone [2]	excretion of 17beta-hydroxy-5alpha-androst-1-en-3-one in the urine [3]
C[C@]12CCC(=O)C=C1CC[C@@H]1[C@@H]2CC[C@]2(C)C(=O)CC[C@@H]12 [androstenedione, 4-androstenedione]	did not report any noticeable improvement		
C[C@]12C=CC(=O)C[C@@H]1CC[C@@H]1[C@@H]2CC[C@]2(C)[C@@H](O)CC[C@@H]12 [17beta-hydroxy-5alpha-androst-1-en-3-one]		considerably more potent	
C[C@]12C=CC(=O)C[C@@H]1CC[C@@H]1[C@@H]2CC[C@]2(C)C(=O)CC[C@@H]12 [5alpha-ANDROST-1-EN-3,17-DIONE, 5alpha-androst-1-en-3,17-dione]	clearly evident significant improvements in all their symptoms		considerable excretion

— patent publication US6391868B1, “Use of 5-alpha-androst-1-en-3,17-dione to increase the level of the anabolic/androgenic hormone 17-beta-hydroxy-5-alpha-androst-1-en-3-one in humans” (LPT Research, Inc., priority 2000, dated 2002)
